From article PMC5268738, “A sequential multi-target Mps1 phosphorylation cascade promotes spindle checkpoint signaling” (eLife, 2017)
Square brackets hold non-standard residues; d marks the D form. Ends that are not written are not given here. Peptide text beside a SMILES is read from it. pT = C[C@@H](OP(=O)(O)O)[C@H](N)C(=O)O; pS = N[C@@H](COP(=O)(O)O)C(=O)O

How the values were obtained:
HeLa Tet-On cells = assay: mitotic index by flow cytometry, Bub1-depleted cells; format: cell-based, human; settings: partial Bub1 depletion, BI 2536 1 µM, nocodazole; n = 3; as shown previously (Jia et al., 2016)
Protocol: HeLa Tet-On cells were initially purchased from Clontech (Mountain View, CA), and were cultured in Dulbecco’s Modified Eagle Medium (DMEM, Invitrogen, Carlsbad, CA) supplemented with 10% fetal bovine serum and 2 mM L-glutamine. The cells were authenticated by genome sequencing and metaphase chromosome spread, and were routinely checked by 4',6-diamidino-2-phenylindole (DAPI) staining to ascertain that they were free of mycoplasma contamination. For G1/S synchronization, cells were treated with 2 mM thymidine (Sigma, St. Louis, MO) for 14–16 hr. For mitotic arrest, cells were treated with 330 nM or 1 µM nocodazole (Sigma) or 100 nM taxol (Sigma) for 12–14 hr. Other chemicals used in this study were: RO3306 (Sigma) at 20 µM, BI 2536 (Selleck Chemicals, Houston, TX) at 1 µM, MG132 (Selleck Chemicals) at 10 µM, okadaic acid (LC lab, Woburn, MA) at 500 nM, and reversine (Cayman Chemical, Ann Arbor, MI) at 1 µM.
For RNAi experiments, cells were transfected with siRNA oligonucleotides (Dharmacon, Lafayette, CO) using Lipofectamine RNAiMAX (Invitrogen) and harvested at 24–72 hr after transfection. The sequences of the siRNAs were (from 5’ to 3’): siBub1-c, […] […]
Cells were synchronized at G1/S with thymidine and released into fresh medium containing 330 nM nocodazole for 13 hr before being harvested. […] The samples were analyzed on a FACSCalibur flow cytometer (BD Biosciences). […]

[1] = molecular target: T1, C-terminal domain (CTD) of scMad1 (Saccharomyces cerevisiae, UniProt P40957); assay: ITC, scBub1 fragment or phospho-peptides with scMad1 CTD; format: binding; settings: 20°C, 25 mM HEPES pH 7.5, 150 mM NaCl, scMad1 20 µM in cell, scBub1 phospho-peptide or fragment 300 µM injected, read-out: Kd, dissociation constant
T1 sequence (P40957 633-749 limits assumed): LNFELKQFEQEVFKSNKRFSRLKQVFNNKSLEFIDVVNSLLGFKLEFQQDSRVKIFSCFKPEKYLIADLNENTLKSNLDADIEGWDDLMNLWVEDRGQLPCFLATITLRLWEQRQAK
Protocol: All isothermal titration calorimetry (ITC) assays were performed with a MicroCal Omega ITC200 titration calorimeter (GE Life Sciences) at 20°C. Recombinant scMad1^CTD protein or scMad1–scMad2 complexes were dialyzed into the HEPES Buffer I (25 mM HEPES, pH 7.5, 150 mM NaCl). Recombinant human Mad1^CTD protein was dialyzed into the HEPES Buffer II (25 mM HEPES, pH 7.5, 50 mM NaCl). For each titration, 300 μl of scMad1 proteins (20 µM) or human Mad1 (50 µM) were added to the calorimeter cell. The scBub1 phospho-peptides or purified scMps1-phosphorylated scBub1_449–530 fragment (300 µM) in the HEPES Buffer I or the human Bub1 phospho-peptides (500 µM) in the HEPES Buffer II were injected with an injection syringe in 19 2-μl portions. The raw data were processed and fitted with the NITPIC software package ([Keller et al., 2012]).

Bub1^ΔK–Bub3 = assay: in vitro kinase assay on recombinant Bub1^ΔK–Bub3; format: biochemical, human; settings: 400 nM Bub1^ΔK–Bub3, 50 nM Cdk1–Cyclin B1 or 500 nM Mps1, 1 mM ATP, room temperature, 30 min; blot
Protocol: For kinase assays, 1 μM Cdc20^ΔN60, 40 μM Mad1^E–Mad2, or 400 nM Bub1^ΔK–Bub3 was incubated with 40 nM Bub1, 500 nM Mps1, and/or 50 nM Cdk1–Cyclin B1 at room temperature for 30 min in the kinase buffer (25 mM Tris-HCl, pH 7.7, 100 mM NaCl, 10 mM MgCl2, 5 mM NaF, 20 mM β-glycerophosphate, 0.1 mM Na3VO4 and 1 mM DTT) supplemented with 1 mM ATP. The reaction mixtures were stopped with the appropriate kinase inhibitors for further protein-binding assays, or quenched with the SDS loading buffer and analyzed by Coomassie blue staining or Western blotting.

APC/C^Cdc20 = APC/C^Cdc20 inhibition by MCC components (securin ubiquitination assay); format: biochemical, Xenopus APC/C, human Cdc20; settings: BubR1^N and Cdc20^ΔN60, no Bub1^ΔK–Bub3, Mad1^E–Mad2, Cdk1 or Mps1
HeLa cells = assay: mitotic arrest by Mis12–Mad1 fusion proteins (mitotic index); format: cell-based, human; settings: no spindle poison
Protocol: Internal deletion mutants were constructed with overlapping extension polymerase chain reaction (PCR). Point mutations were introduced with QuikChange Lightening Site-Directed Mutagenesis kit (Agilent Technologies, Santa Clara, CA). All plasmids were verified by sequencing. Plasmid transfection was performed with the Effectene reagent (Qiagen, German Town, MD) according to the manufacturer’s instructions.
[…] For Plk1 inhibition, BI 2536 was added 1 hr prior to harvest. Collected cells were washed with PBS and fixed with pre-chilled 70% ethanol at −20°C overnight. After being washed with PBS, the fixed cells were permeabilized with 0.2% Triton X-100 in PBS for 20 min. Cells were then incubated with the anti-MPM2 antibody (1:100, Millipore) in PBS containing 1% BSA for 2 hr. After being washed with PBS, cells were incubated with fluorescent secondary antibodies (Invitrogen) in PBS containing 1% BSA for 30 min. After being washed with PBS, cells were stained with 20 μg/ml propidium iodide (Sigma) in PBS containing 200 μg/ml RNase (Qiagen). All staining steps were performed at room temperature. The samples were analyzed on a FACSCalibur flow cytometer (BD Biosciences). Data were processed with the FlowJo software. The mitotic index was defined as the percentage of cells that had 4N DNA content and were also positive for MPM2 staining. […]

human Mad1 CTD = assay: in vitro pull-down of human Mad1^CTD by Bub1 peptide beads; format: binding; settings: peptides immobilized on SulfoLink resin, Coomassie
Protocol: Recombinant bait proteins or bacteria lysates containing bait proteins were incubated with the appropriate affinity beads. Bait-bound beads were then blocked with 2% fat-free milk when necessary before being mixed with 100 µl diluted prey proteins. After incubation, beads were washed and eluted with the SDS loading buffer. The bead-bound proteins were analyzed by Coomassie blue staining or Western blotting. […] In cases that synthesized peptides were used as bait, peptides were immobilized on SulfoLink resin (Thermo Scientific, Waltham, MA) according to the manufacturer’s instructions. The synthetic scBub1 peptides contained residues 449–473 of scBub1, various phospho-residues, and a cysteine at the N-terminus. All synthetic human Bub1 peptides, except the pS459 peptide, contained residue 455–477 of human Bub1, the appropriate phospho-residues, and a cysteine at the N-terminus. The Bub1 pS459 peptide contained residues 439–480, pT452/pS459, and a cysteine at the C-terminus.

## CC[C@@H]1C(=O)N(C)c2cnc(Nc3ccc(C(=O)NC4CCN(C)CC4)cc3OC)nc2N1C1CCCC1 [BI 2536, reference compound]
HeLa Tet-On cells
  effect of Plk1 inhibition with partial depletion of Bub1 on the spindle checkpoint (in words): synergistically inactivated the spindle checkpoint and reduced nocodazole-triggered mitotic arrest

## CC[C@H](C)[C@H](NC(=O)[C@H](C)NC(=O)[C@H](CC(=O)O)NC(=O)[C@H](CCCCN)NC(=O)[C@H](CO)NC(=O)[C@H](Cc1ccccc1)NC(=O)[C@H](C)NC(=O)[C@@H](NC(=O)[C@@H](NC(=O)[C@@H](NC(=O)[C@@H]1CCCN1C(=O)[C@H](CO)NC(=O)[C@H](CCCNC(=N)N)NC(=O)[C@H](CO)NC(=O)[C@@H](N)CS)[C@@H](C)OP(=O)(O)O)C(C)C)[C@@H](C)OP(=O)(O)O)C(=O)N[C@@H](CC(N)=O)C(=O)N[C@@H](CCC(=O)O)C(=O)N[C@H](C(=O)N[C@@H](Cc1ccccc1)C(=O)N[C@@H](CO)C(=O)N[C@@H](CCSC)C(=O)N[C@@H](Cc1ccccc1)C(=O)N[C@@H](CC(N)=O)C(=O)N[C@@H](CCC(N)=O)C(=O)N[C@@H](Cc1c[nH]cn1)C(=O)N[C@@H](Cc1ccc(O)cc1)C(=O)O)C(C)C [scBub1 pT453-pT455 peptide] (H-CSRSP[pT]V[pT]AFSKDAINEVFSMFNQHY-OH)
[1]
  Kd: 1.6 µM

## CC[C@H](C)[C@H](NC(=O)[C@H](C)NC(=O)[C@H](CC(=O)O)NC(=O)[C@H](CCCCN)NC(=O)[C@H](CO)NC(=O)[C@H](Cc1ccccc1)NC(=O)[C@H](C)NC(=O)[C@@H](NC(=O)[C@@H](NC(=O)[C@@H](NC(=O)[C@@H]1CCCN1C(=O)[C@H](CO)NC(=O)[C@H](CCCNC(=N)N)NC(=O)[C@H](CO)NC(=O)[C@@H](N)CS)[C@@H](C)O)C(C)C)[C@@H](C)OP(=O)(O)O)C(=O)N[C@@H](CC(N)=O)C(=O)N[C@@H](CCC(=O)O)C(=O)N[C@H](C(=O)N[C@@H](Cc1ccccc1)C(=O)N[C@@H](CO)C(=O)N[C@@H](CCSC)C(=O)N[C@@H](Cc1ccccc1)C(=O)N[C@@H](CC(N)=O)C(=O)N[C@@H](CCC(N)=O)C(=O)N[C@@H](Cc1c[nH]cn1)C(=O)N[C@@H](Cc1ccc(O)cc1)C(=O)O)C(C)C [scBub1 pT455 peptide] (H-CSRSPTV[pT]AFSKDAINEVFSMFNQHY-OH)
[1]
  Kd: 1.6 µM

## Cdk1: recombinant GST-Cdk1 (T14A/Y15F) co-expressed with His6-Cyclin B1 [reference compound]
Bub1^ΔK–Bub3
  phosphorylation of Bub1^ΔK–Bub3 at S459 (in words): strongly phosphorylated at S459

## Mad2^Di: dimeric Mad2 separated by ion exchange chromatography
APC/C^Cdc20
  spontaneous functional MCC formation and APC/C^Cdc20 inhibition (in words): allowed the spontaneous formation of functional MCC that inhibited securin ubiquitination by APC/C^Cdc20

## Mad2^Mono: monomeric Mad2, mostly the inactive O-Mad2
APC/C^Cdc20
  spontaneous functional MCC formation and APC/C^Cdc20 inhibition (in words): only showed weak APC/C^Cdc20 inhibition at very high doses

## T716A: Mis12–Mad1 with T716A mutation
HeLa cells
  mitotic arrest by Mis12–Mad1 fusion protein (in words): abrogated the function of Mis12–Mad1 more strongly than simultaneously mutating the 13 sites outside of the CTD

## pS459-pT461-pT464 peptide: triply phosphorylated synthetic human Bub1 peptide, residues 455–477, N-terminal cysteine (CKVQP[pS]P[pT]VH[pT]KEALGFIMNMFQA; UniProt O43683 455-477, looked up, fragment)
Human Mad1 CTD
  binding to human Mad1 CTD (in words): bound more weakly to Mad1 than the pS459-pT461 peptide
